Patent publication US20210139528A1, “CRYSTALLINE FORMS OF OBETICHOLIC ACID” (INTERCEPT PHARMACEUTICALS, INC., priority 2017, published 2021)
Counter-ions that a name gives are not always drawn.

Tests used:
[1] = Storage at elevated temperature/humidity, solid form checked by XRPD
[2] = Gravimetric Vapor Sorption (GVS); type: physicochemical; details: for GVS water uptake: 0-90% RH range, about 25° C.; for XRPD post GVS (form recovered after the experiment): after GVS cycle 0-90% RH
Protocol: Sorption isotherms were obtained using a SMS DVS Intrinsic moisture sorption analyzer, controlled by DVS Intrinsic Control software v1.0.1.2 (or v 1.0.1.3). The sample temperature was maintained at about 25° C. by the instrument controls. The humidity was controlled by mixing streams of dry and wet nitrogen, with a total flow rate of about 200 mL/min. The relative humidity was measured by a calibrated Rotronic probe (dynamic range of about 1.0-100% RH), located near the sample. The weight change, (mass relaxation) of the sample as a function of % RH was constantly monitored by the microbalance (accuracy ±0.005 mg). Typically, about 18-20 mg of sample was placed in a tared mesh stainless steel basket under ambient conditions. The sample was loaded and unloaded at about 40% RH and about 25° C. (typical room conditions). A moisture sorption isotherm was performed as outlined in Table 1 (2 scans giving 1 complete cycle). The standard isotherm was performed at about 25° C. at about 10% RH intervals over a 0-90% RH range. Data analysis was carried out using Microsoft Excel using DVS Analysis Suite v6.2 (or 6.1 or 6.0). The sample was recovered after completion of the isotherm and re-analysed by XRPD.

Stability on storage at 25° C./97% RH (XRPD) ([1]; 25° C./97% RH, 7 days)	Stability on storage at 40° C./75% RH (XRPD) ([1]; 40° C./75% RH, 7 days)	Stability on storage at 40° C./75% RH (XRPD), screening sample ([1]; screening sample, 40° C./75% RH, 23 days)	GVS water uptake [2]	GVS water uptake ([2]; listed as cocrystal) [% water uptake]	XRPD post GVS (form recovered after the experiment) [2]	XRPD post GVS (form recovered after the experiment) ([2]; listed as cocrystal)	Compound
amorphous	unchanged	possible form change					CC[C@H]1[C@@H](O)[C@@H]2[C@H](CC[C@]3(C)[C@@H]([C@H](C)CCC(=O)O)CC[C@@H]23)[C@@]2(C)CC[C@@H](O)C[C@@H]12 [obeticholic acid monoammonium salt]
			ca. 1 % w/w	1	no change	Unchanged by XRPD	Obeticholic acid-ursodeoxycholic acid (2:1) cocrystal [OCA:UDCA cocrystal]
